Values joined by “and” are separate entries in the source; they are usually repeats but may differ in a detail not shown here. Identical values can stand only once.
Experiments:
ALOMY [1] = assay: Pre-emergence action at 320 g/ha against ALOMY; type: in vivo, Alopecurus myosuroides; settings: scored visually after about 3 weeks vs untreated controls (100% = plants have died)
In short: (§1)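 Sow seeds, cover with soil, spray soil surface (WP/EC, 0.5% additive, 600 l/ha water), hold in greenhouse ~3 wk, then rate % activity visually against untreated controls.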

AVEFA = assay: Pre-emergence action at 320 g/ha against AVEFA; type: in vivo; settings: visual scoring after about 3 weeks vs untreated controls
In short: as §1

ECHGC = assay: Pre-emergence action at 320 g/ha against ECHGC; type: in vivo, Echinochloa crus-galli; settings: visual scoring after about 3 weeks vs untreated controls
In short: as §1

LOLRI [2] = assay: Pre-emergence action at 320 g/ha against LOLRI; type: in vivo, Lolium rigidum; settings: visual scoring after about 3 weeks vs untreated controls
In short: as §1

SETVI [3] = assay: Pre-emergence action at 320 g/ha against SETVI; type: in vivo, Setaria viridis; settings: visual scoring after about 3 weeks vs untreated controls
In short: as §1

AMARE [4] = assay: Pre-emergence action at 320 g/ha against AMARE; type: in vivo, Amaranthus retroflexus; settings: visual scoring after about 3 weeks vs untreated controls
In short: as §1

MATIN [5] = assay: Pre-emergence action at 320 g/ha against MATIN; type: in vivo, Tripleurospermum inodorum (Matricaria inodora); settings: visual scoring after about 3 weeks vs untreated controls
In short: as §1

PHBPU = assay: Pre-emergence action at 320 g/ha against PHBPU; type: in vivo; settings: visual scoring after about 3 weeks vs untreated controls
Description: b) Seeds of monocotyledonous and dicotyledonous weed plants and crop plants are placed in plastic or organic planting pots and covered with soil. The compounds of the invention, formulated in the form of wettable powders (WP) or as emulsion concentrates (EC), are then applied onto the surface of the covering soil as aqueous suspension or emulsion with addition of 0.5% additive at a water application rate of 600 l/ha (converted). After the treatment, the pots are placed in a greenhouse and kept under good growth conditions for the trial plants. After about 3 weeks, the effect of the preparations is scored visually in comparison with untreated controls as percentages. For example, 100% activity=the plants have died, 0% activity=like control plants. Tables 13 to 26 below show the effects of selected compounds of the general formula (I) on various harmful plants and at an application rate corresponding to 320 g/ha, which were obtained by the experimental procedure mentioned above.

POLCO = assay: Pre-emergence action at 320 g/ha against POLCO; type: in vivo, Fallopia convolvulus (Polygonum convolvulus); settings: visual scoring after about 3 weeks vs untreated controls
In short: as §1

VERPE [6] = assay: Pre-emergence action at 320 g/ha against VERPE; type: in vivo, Veronica persica; settings: visual scoring after about 3 weeks vs untreated controls
In short: as §1

VIOTR = assay: Pre-emergence action at 320 g/ha against VIOTR; type: in vivo, Viola tricolor; settings: dosage 320 g/ha
In short: as §1

ALOMY [7] = assay: Pre-emergence action against ALOMY, 1280 g/ha; type: in vivo, Alopecurus myosuroides; settings: visual scoring after about 3 weeks vs untreated controls, 100% = plants have died, 0% = like control plants
In short: (§2)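 Percent herbicidal effect, judged by eye relative to untreated pots around 3 weeks after soil-surface treatment. Application: formulated compound in water, 600 L/ha, 0.5% additive, on soil over sown seeds; greenhouse.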

DIGSA [8] = assay: Pre-emergence action against DIGSA, 1280 g/ha; type: in vivo, Digitaria sanguinalis; settings: visual scoring after about 3 weeks vs untreated controls, 100% = plants have died, 0% = like control plants
In short: as §2

ECHCG [9] = assay: Pre-emergence action against ECHCG, 1280 g/ha; type: in vivo, Echinochloa crus-galli; settings: visual scoring after about 3 weeks vs untreated controls, 100% = plants have died, 0% = like control plants
In short: as §2

LOLRI [10] = assay: Pre-emergence action against LOLRI, 1280 g/ha; type: in vivo, Lolium rigidum; settings: visual scoring after about 3 weeks vs untreated controls, 100% = plants have died, 0% = like control plants
In short: as §2

POAAN [11] = assay: Pre-emergence action against POAAN, 1280 g/ha; type: in vivo, Poa annua; settings: visual scoring after about 3 weeks vs untreated controls, 100% = plants have died, 0% = like control plants
In short: as §2

SETVI [12] = assay: Pre-emergence action against SETVI, 1280 g/ha; type: in vivo, Setaria viridis; settings: visual scoring after about 3 weeks vs untreated controls, 100% = plants have died, 0% = like control plants
In short: as §2

ABUTH [13] = assay: Pre-emergence action against ABUTH, 1280 g/ha; type: in vivo, Abutilon theophrasti; settings: scored visually after about 3 weeks vs untreated controls (100% = plants have died)
In short: as §2

AMARE [14] = assay: Pre-emergence action against AMARE, 1280 g/ha; type: in vivo, Amaranthus retroflexus; settings: scored visually after about 3 weeks vs untreated controls (100% = plants have died)
In short: as §2

KCHSC [15] = assay: Pre-emergence action against KCHSC, 1280 g/ha; type: in vivo, Bassia scoparia; settings: scored visually after about 3 weeks vs untreated controls (100% = plants have died)
In short: as §2

MATIN [16] = assay: Pre-emergence action against MATIN, 1280 g/ha; type: in vivo, Tripleurospermum inodorum (Matricaria inodora); settings: scored visually after about 3 weeks vs untreated controls (100% = plants have died)
In short: as §2

STEME [17] = assay: Pre-emergence action against STEME, 1280 g/ha; type: in vivo, Stellaria media; settings: scored visually after about 3 weeks vs untreated controls (100% = plants have died)
In short: as §2

VERPE [18] = assay: Pre-emergence action against VERPE, 1280 g/ha; type: in vivo, Veronica persica; settings: scored visually after about 3 weeks vs untreated controls (100% = plants have died)
In short: as §2

DIGSA [19] = assay: Pre-emergence action at 320 g/ha against DIGSA; type: in vivo, Digitaria sanguinalis; settings: visual scoring after about 3 weeks vs untreated controls
In short: as §1

ALOMY [20] = assay: Post-emergence action against ALOMY, 1.28 kg/ha; type: in vivo, Alopecurus myosuroides; settings: dosage 1280 g/ha, visual rating about 3 weeks after treatment vs untreated controls
In short: (§3)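 Post-emergence greenhouse spray, one-leaf stage (2–3 wk after sowing), sandy loam. WP/EC, aqueous + 0.5% additive, 600 L/ha water. Visual % activity vs untreated, ~3 wk after treatment; 100% = plants dead.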

DIGSA [21] = assay: Post-emergence action against DIGSA, 1.28 kg/ha; type: in vivo, Digitaria sanguinalis; settings: dosage 1280 g/ha, visual rating about 3 weeks after treatment vs untreated controls
In short: as §3

ECHCG [22] = assay: Post-emergence action against ECHCG, 1.28 kg/ha; type: in vivo, Echinochloa crus-galli; settings: dosage 1280 g/ha, visual rating about 3 weeks after treatment vs untreated controls
In short: as §3

LOLRI [23] = assay: Post-emergence action against LOLRI, 1.28 kg/ha; type: in vivo, Lolium rigidum; settings: dosage 1280 g/ha, visual rating about 3 weeks after treatment vs untreated controls
In short: as §3

POAAN [24] = assay: Post-emergence action against POAAN, 1.28 kg/ha; type: in vivo, Poa annua; settings: dosage 1280 g/ha, visual rating about 3 weeks after treatment vs untreated controls
In short: as §3

SETVI [25] = assay: Post-emergence action against SETVI, 1.28 kg/ha; type: in vivo, Setaria viridis; settings: dosage 1280 g/ha, visual rating about 3 weeks after treatment vs untreated controls
In short: as §3

ABUTH [26] = assay: Post-emergence action against ABUTH, 1.28 kg/ha; type: in vivo, Abutilon theophrasti; settings: dosage 1280 g/ha, visual rating about 3 weeks after treatment vs untreated controls (100% = plants died)
In short: as §3

AMARE [27] = assay: Post-emergence action against AMARE, 1.28 kg/ha; type: in vivo, Amaranthus retroflexus; settings: dosage 1280 g/ha, visual rating about 3 weeks after treatment vs untreated controls (100% = plants died)
In short: as §3

KCHSC [28] = assay: Post-emergence action against KCHSC, 1.28 kg/ha; type: in vivo, Bassia scoparia; settings: dosage 1280 g/ha, visual rating about 3 weeks after treatment vs untreated controls (100% = plants died)
In short: as §3

MATIN [29] = assay: Post-emergence action against MATIN, 1.28 kg/ha; type: in vivo, Tripleurospermum inodorum (Matricaria inodora); settings: dosage 1280 g/ha, visual rating about 3 weeks after treatment vs untreated controls (100% = plants died)
In short: as §3

STEME [30] = assay: Post-emergence action against STEME, 1.28 kg/ha; type: in vivo, Stellaria media; settings: dosage 1280 g/ha, visual rating about 3 weeks after treatment vs untreated controls (100% = plants died)
In short: as §3

VERPE [31] = assay: Post-emergence action against VERPE, 1.28 kg/ha; type: in vivo, Veronica persica; settings: dosage 1280 g/ha, visual rating about 3 weeks after treatment vs untreated controls (100% = plants died)
In short: as §3

CCOC(=O)CN(C)S(=O)(=O)NC(=O)COc1nn(-c2ccccc2F)c(-c2cncc(F)c2)c1Br [Example X-041]
Pre-emergence action at 320 g/ha against ALOMY in % (ALOMY [1]): 100%
Pre-emergence action against AVEFA in % (AVEFA): 80%
Pre-emergence action against ECHGC in % (ECHGC): 80%
Pre-emergence action against LOLRI in % (LOLRI [2]): 90%
Pre-emergence action against SETVI in % (SETVI [3]): 90%
Pre-emergence action against AMARE in % (AMARE [4]): 90%
Pre-emergence action against MATIN in % (MATIN [5]): 90%
Pre-emergence action against PHBPU in % (PHBPU): 90%
Pre-emergence action against POLCO in % (POLCO): 90%
Pre-emergence action against VERPE in % (VERPE [6]): 100%
Pre-emergence action against VIOTR in % (VIOTR): 100%

O=C(COc1nn(-c2ccccc2F)c(-c2ccc(F)nc2)c1Br)O[C@H]1CCOC1=O [VII-064]
Pre-emergence action against ALOMY (ALOMY [7]): 100%
Pre-emergence action against DIGSA (DIGSA [8]): 100%
Pre-emergence action against ECHCG (ECHCG [9]): 100%
Pre-emergence action against LOLRI (LOLRI [10]): 100%
Pre-emergence action against POAAN (POAAN [11]): 100%
Pre-emergence action against SETVI (SETVI [12]): 100%
Pre-emergence action against ABUTH (ABUTH [13]): 90%
Pre-emergence action against AMARE (AMARE [14]): 100%
Pre-emergence action against KCHSC (KCHSC [15]): 100% and 90%
Pre-emergence action against MATIN (MATIN [16]): 100%
Pre-emergence action against STEME (STEME [17]): 100%
Pre-emergence action against VERPE (VERPE [18]): 100%
Pre-emergence action at 320 g/ha against ALOMY in % (ALOMY [1]): 100%
Pre-emergence action against AVEFA in % (AVEFA): 90%
Pre-emergence action against DIGSA in % (DIGSA [19]): 100%
Pre-emergence action against ECHGC in % (ECHGC): 100% and 90%
Pre-emergence action against LOLRI in % (LOLRI [2]): 100%
Pre-emergence action against SETVI in % (SETVI [3]): 100%
Pre-emergence action against AMARE in % (AMARE [4]): 100%
Pre-emergence action against MATIN in % (MATIN [5]): 100%
Pre-emergence action against PHBPU in % (PHBPU): 90%
Pre-emergence action against POLCO in % (POLCO): 90%
Pre-emergence action against VERPE in % (VERPE [6]): 100%
Pre-emergence action against VIOTR in % (VIOTR): 100%
Post-emergence action against ALOMY (ALOMY [20]): 100%
Post-emergence action against DIGSA (DIGSA [21]): 100%
Post-emergence action against ECHCG (ECHCG [22]): 100%
Post-emergence action against LOLRI (LOLRI [23]): 100% and 90%
Post-emergence action against POAAN (POAAN [24]): 100%
Post-emergence action against SETVI (SETVI [25]): 100% and 90%
Post-emergence action against ABUTH (ABUTH [26]): 90%
Post-emergence action against AMARE (AMARE [27]): 90% and 100%
Post-emergence action against KCHSC (KCHSC [28]): 90%
Post-emergence action against MATIN (MATIN [29]): 100% and 90%
Post-emergence action against STEME (STEME [30]): 100%
Post-emergence action against VERPE (VERPE [31]): 100%

From US12180187B2, “1-phenyl-5-azinylpyrazolyl-3-oxyalkyl acids and their use for controlling unwanted plant growth” (BAYER AKTIENGESELLSCHAFT, priority 2019, dated 2024)
